Test results reported in article PMC11232385, “Selective depletion of HBV-infected hepatocytes by class A capsid assembly modulators requires high levels of intrahepatic HBV core protein” (Antimicrobial Agents and Chemotherapy, 2024).
Like-named read-outs stand apart in the source and are kept apart here.

Experiments:
HBV [1] = tested on: HBV; parameters: method as in doi:10.1016/S0168-8278(20)32197-8; settings: cited from earlier work
[2] = uPA-SCID mouse, 100 mg-eq/kg oral QD
HBV genotype C = assay type: in vivo, uPA-SCID mice; settings: uPA-SCID mouse; for mean decrease of serum HBV DNA: compared to the vehicle, 84 days oral QD; for HBsAg decline: day 84 vs day 0
Procedure: General health observations including weight were monitored weekly. All animal protocols were performed in accordance with the Guide for the Care and Use of Laboratory Animals and approved by the Animal Welfare Committee of Phoenix Bio Co., Ltd. All mice were housed individually and maintained in accordance with the Animal Ethics Committee of PhoenixBio (resolution #2214).
HBV-infected mice were randomized into four different treatment groups based on body weight, blood human albumin (h-Alb), and serum HBV DNA concentrations. All mice had blood h-Alb levels above 12 mg/mL and serum HBV DNA levels above 6.8 × 10^8 copies/mL. […] Mice were followed for an additional 28 days following cessation of treatment at day 84. Mouse serum was monitored weekly for serum HBV DNA and HBV antigens and biweekly for human (h) ALT1. Serum HBsAg and HBeAg concentrations were determined by SRL, Inc. (Tokyo, Japan) based on Chemiluminescent Enzyme Immuno Assay. HBV DNA concentration was performed using the TaqMan Fast Advanced Master Mix (Applied Biosystems, Thermo Fisher Scientific Inc.) and Applied Biosystems 7500 Real-Time PCR System (Applied Biosystems). Serum h-ALT1 concentration was determined by the Institute of Immunology Co., Ltd. (Tokyo, Japan) based on Enzyme-Linked ImmunoSorbent Assay.
(§1) Dewaxing and unmasking of antigens were performed on a Bond RX autostainer (Leica Biosystem), and subsequent assay modified for a single round of staining was performed using the Opal technology workflow (Akoya Biosciences), as described previously ([39]).

AAV-HBV (HBV genotype D) = assay: Efficacy study in the AAV-HBV mouse model; assay type: in vivo, C57BL/6 mice; settings: for serum ALT: during 56 days of treatment; for serum HBV DNA reduction / reduction of HBc-positive cells in the liver / HBeAg reduction / HBsAg reduction: end of treatment (day 56); for serum HBV DNA reduction: oral QD; for reduction of HBc-positive cells in the liver: immunofluorescence; for HBeAg reduction / HBsAg reduction: relative to vehicle
Procedure: Recombinant AAV (serotype 8) carrying the 1.3 copy HBV genome (genotype D; serotype ayw) and empty AAV were provided by Beijing FivePlus Molecular Medicine Institute (Beijing, China). C57BL/6 mice were provided by Shanghai Lingchang Bio Tech Co. Ltd (Shanghai, China). Studies were conducted by Covance Pharmaceutical R&D (Shanghai, China). All procedures implemented during the studies followed local animal welfare legislation, Covance global policies and procedures, and the Guide for the Care and Use of Laboratory Animals.
C57BL/6 mice (male; 4–5 weeks of age) were injected with 200 µL PBS containing 1 × 10^11 vge recombinant virus per mouse through the tail vein. Twenty-eight days after AAV-HBV injection, the mice were bled retro-orbitally to monitor HBsAg and HBV genomic DNA in serum. Based on the HBsAg, HBeAg, and HBV DNA levels and body weight, AAV-HBV-infected mice were selected and randomized into groups (six animals per group) for compound and/or siRNA treatment. […] LNP empty and LNP siRNA 3 mg/kg were injected intravenously at 4 mL/kg on dosing days 0, 14, 28, 42, and 56. […] Serum HBsAg, HBeAg, and HBV DNA were measured twice weekly. ALT was measured once weekly throughout the study. Serum HBsAg and HBeAg were determined by […] i2000 (Abbott Laboratories, Lake Bluff, IL, USA). Serum HBV-DNA was analyzed by ABI7500 (Applied Biosystems, Foster City, CA, USA) and a detection kit (Sansure Biotech Inc., Changsha, Hunan, China). Serum ALT was determined using Roche Cobas 6000 Chemistry Analyzer (Roche Diagnostics, Mannheim, Germany) and supporting reagents.
as §1

PHH = assay: Cytotoxicity (alamarBlue) in HBV-infected PHH, 6 days of treatment; assay type: cell-based, human
Procedure: (§2) Cryopreserved PHHs isolated from multiple donors were purchased from Thermo Fisher Scientific (Waltham, MA), Bioreclamation IVT (Hicksville, NY), or Lonza (USA). PHH culturing conditions as previously described ([11]). Approximately 24 h after plating, PHH was infected with HepAD38-derived HBV virions ([36]) (genotype D virus) at 500 viral genome equivalents per cell in a maintenance medium supplemented with 4% PEG 8000 (Promega, Madison, WI; V3011). The infection was allowed to proceed for 20–24 h before removing remaining extracellular virions by washing with a maintenance medium three times.
(§3) Antiviral activity or cytotoxicity of each test compound was determined from, extracellular HBV DNA, HBeAg, HBsAg, and alamarBlue data by comparing compound-treated PHH to DMSO-treated PHH to generate a percent of DMSO control value (% DMSO control). The % DMSO control was calculated by the following equation: % DMSO Control = 100× (XC/XD) where XC is the signal from the compound-treated PHH, and XD is the signal from the DMSO-treated PHH. The percentage of DMSO control for HBV DNA, HBeAg, HBsAg, and alamarBlue was plotted vs the log of each compound concentration in GraphPad Prism (version 6; GraphPad Software, La Jolla, CA) to generate dose-response curves. […] Error bars represent SD. Statistical analyses were performed by two-way analysis of variance (ANOVA) and Pearson’s correlation tests.

[3] = AAV-HBV mouse, 100 mg-eq/kg oral QD
HBV genotype D = assay: Antiviral activity in HBV-infected PHH, drugs added day 3 post infection, 6 days of treatment; assay type: cell-based, Hepatitis B virus
Procedure: as §2
Extracellular HBsAg and HBeAg were detected in culture media by an electrochemiluminescence assay (Meso Scale Discovery [MSD]) as previously described ([37]).
Extracellular HBV DNA from PHH supernatants was purified using the Qiagen DNeasy 96 kit (69582) following the protocol recommended by the manufacturer. Quantification of HBV DNA by qPCR amplification of the HBV X region of the genome was performed as previously reported ([11]).
as §3

HBV cccDNA = settings: cited from earlier work
HBV [4] = tested on: HBV; parameters: method as in doi:10.1016/S0168-8278(22)00964-3, doi:10.1016/S0168-8278(22)02029-3; settings: treatment-naïve and NA-suppressed patients, with an NA; cited from earlier work

| Compound | mean decrease of serum HBV DNA (HBV genotype C) | HBsAg decline (HBV genotype C) | serum ALT (AAV-HBV (HBV genotype D)) | serum HBV DNA reduction (AAV-HBV (HBV genotype D)) | reduction of HBc-positive cells in the liver (AAV-HBV (HBV genotype D)) | HBeAg reduction (AAV-HBV (HBV genotype D)) | HBsAg reduction (AAV-HBV (HBV genotype D)) | other results |
| --- | --- | --- | --- | --- | --- | --- | --- | --- |
| CCOC(=O)C1=C(CN2CCOCC2)NC(c2nccs2)=NC1c1ccc(F)cc1Br (stereo not shown) [GLS4] |  |  |  |  |  |  |  | HBsAg reduction (HBV [1]; treatment-naïve HBeAg-positive patients): 0.4 log10 IU/mL; HBsAg effect (HBV [1]; virally suppressed patients): no effect |
| CNC(=O)C1(NC(=O)C(=O)c2c(C)c(C(=O)Nc3ccc(F)c(F)c3)n3c2CCC3)CC(F)(F)C1 [GS-SBA-1P] | 5.0 log10 | 0.4 log10 | no changes | 3.7 log10 | minimal reduction | no changes | no changes | plasma exposures over the mouse plasma-adjusted EC50 of HBV DNA production [2]: greater than 76 fold; reduction of HBc-positive cells in the liver (HBV genotype C; immunofluorescence, compared to vehicle or TAF-treated animals): 30%; CC50 (PHH): > 2000 nM; plasma and liver concentrations over the paEC50 [3]: approximately 76 fold; EC50 (HBV genotype D; extracellular HBV DNA, mean ± SD, read-out: Viral DNA EC50): 12 ± 1.2 nM; EC50 (HBV genotype D; read-out: HBeAg EC50): > 2000 nM; EC50 (HBV genotype D; read-out: HBsAg EC50): > 2000 nM; concentration blocking cccDNA establishment over the HBV DNA plasma-adjusted EC50 (HBV cccDNA): six-fold |
| CCOC(=O)C1=C(CN2CCN3C(=O)N(CC(C)(C)C(=O)O)C[C@@H]3C2)N=C(c2nccs2)N[C@H]1c1cccc(F)c1C [RG7907] |  |  |  |  |  |  |  | HBsAg reduction (HBV [4]): no significant reduction of HBsAg |
| CC(C)OC(=O)[C@H](C)N[P@](=O)(CO[C@H](C)Cn1cnc2c(N)ncnc21)Oc1ccccc1 [TAF, tenofovir alafenamide] | 3.6 log10 | 0.35 log10 | no changes | 2.5 log10 | no change | no changes | no changes |  |
